# Measurements reported in patent US8741892B2, “Compounds” (Boehringer Ingelheim International GmbH, priority 2011, dated 2014).
# Molecular target: T1, human recombinant mGluR5 (Homo sapiens, UniProt P41594)
# T1 construct: expressed in transfected cells; host or cells: HEK 293
# Assay: positive modulation of mGluR5, calcium based FLIPR assay
# Details: HEK 293 cell line expressing human recombinant mGluR5; EC50 of the modulation from peak Ca fluorescence signal after glutamate at approx. 5% basal stimulation
# Description: The positive modulation of mGluR5 is measured in a HEK 293 cell line expressing human recombinant mGluR5 and is detected with calcium based FLIPR assay. The cells are cultured with DMEM supplemented with 10% FCS, 2 μg/mL tetracycline, 100 μg/mL hygromycin and 500 μg/mL geneticin. The cell culture media is exchanged for tetracycline-free cell culture media 3-7 days before the assay. One day before the assay the cell culture medium is exchanged to DMEM without glutamine and phenol red and supplemented with 10% FCS, 100 μg/mL hygromycin and 500 μg/mL geneticin. On the assay day, the medium of the subconfluent cultures is removed and the cells are detached by addition of 2.5 ml EDTA (0.02%) per 175 cm2 culture flask for 1 minute. The cells are resuspend in Ringer solution (140 mM NaCl, 5 mM KCl, 2.5 mM CaCl2, 1.5 mM MgCl2, 5 mM Glucose, 10 mM Hepes; adjusted to pH 7.4 with NaOH), pooled and Ringer solution added to adjust the volume to 50 mL. The cell suspension is centrifuged for […] at 1500 U/min (425 g). The supernatant is removed and the cells washed a second time with 50 ml fresh Ringer solution and centrifuged again as before. The supernatant is again removed and the pellet resuspended in Ringer solution to 1,000,000 cells/ml (1×10^6 cells/mL). The cells are plated onto BD BioCoat Poly-D-Lysine 384 well plates (20.000 cells/well; 20 μl/well). The lid covered plates are then incubated until use at 37° C./10% CO2. For dye loading, 20 μl of Calcium-4 assay kit solution (prepared according to the manufacturer's description in Ringer solution) are added to the cells and the plates are incubated for […] 37° C. and then […] at room temperature.
# Controls, Compound Dilution and Assay Execution:
# Each assay plate contained wells with “high” and “low” controls:
# Low controls 1% DMSO/ringer solution+basal glutamate activation (defined as 100% CTL).
# High controls 10 μM CDPPB+basal glutamate activation (defined as 200% CTL).
# Test compounds are dissolved and diluted in DMSO to 100-fold the desired concentrations. In a second step, the compounds are diluted in Ringer solution such that the compounds are 4-fold more concentrated than the desired final assay concentration. The final DMSO concentration was 1%.
# 20 μl of each compound solution are then transferred to the assay plate and the Ca2+ kinetic is measured to determine any intrinsic compound activity. After 5 mM incubation in the FLIPR device, the second stimulation with 20 μl of glutamate in Ringer solution (glutamate concentration adjusted to approximately 5% basal stimulation of the maximal possible glutamate effect) is added and the kinetic Ca2+ response of the wells was measured for the modulation effect.
# The peak height of the Ca release related fluorescence signal (9-66) is used for the EC50. The EC50 of the modulation is calculated over a nonlinear regression with GraphPad Prism (Table 1).
# T1 sequence (P41594 21-1212): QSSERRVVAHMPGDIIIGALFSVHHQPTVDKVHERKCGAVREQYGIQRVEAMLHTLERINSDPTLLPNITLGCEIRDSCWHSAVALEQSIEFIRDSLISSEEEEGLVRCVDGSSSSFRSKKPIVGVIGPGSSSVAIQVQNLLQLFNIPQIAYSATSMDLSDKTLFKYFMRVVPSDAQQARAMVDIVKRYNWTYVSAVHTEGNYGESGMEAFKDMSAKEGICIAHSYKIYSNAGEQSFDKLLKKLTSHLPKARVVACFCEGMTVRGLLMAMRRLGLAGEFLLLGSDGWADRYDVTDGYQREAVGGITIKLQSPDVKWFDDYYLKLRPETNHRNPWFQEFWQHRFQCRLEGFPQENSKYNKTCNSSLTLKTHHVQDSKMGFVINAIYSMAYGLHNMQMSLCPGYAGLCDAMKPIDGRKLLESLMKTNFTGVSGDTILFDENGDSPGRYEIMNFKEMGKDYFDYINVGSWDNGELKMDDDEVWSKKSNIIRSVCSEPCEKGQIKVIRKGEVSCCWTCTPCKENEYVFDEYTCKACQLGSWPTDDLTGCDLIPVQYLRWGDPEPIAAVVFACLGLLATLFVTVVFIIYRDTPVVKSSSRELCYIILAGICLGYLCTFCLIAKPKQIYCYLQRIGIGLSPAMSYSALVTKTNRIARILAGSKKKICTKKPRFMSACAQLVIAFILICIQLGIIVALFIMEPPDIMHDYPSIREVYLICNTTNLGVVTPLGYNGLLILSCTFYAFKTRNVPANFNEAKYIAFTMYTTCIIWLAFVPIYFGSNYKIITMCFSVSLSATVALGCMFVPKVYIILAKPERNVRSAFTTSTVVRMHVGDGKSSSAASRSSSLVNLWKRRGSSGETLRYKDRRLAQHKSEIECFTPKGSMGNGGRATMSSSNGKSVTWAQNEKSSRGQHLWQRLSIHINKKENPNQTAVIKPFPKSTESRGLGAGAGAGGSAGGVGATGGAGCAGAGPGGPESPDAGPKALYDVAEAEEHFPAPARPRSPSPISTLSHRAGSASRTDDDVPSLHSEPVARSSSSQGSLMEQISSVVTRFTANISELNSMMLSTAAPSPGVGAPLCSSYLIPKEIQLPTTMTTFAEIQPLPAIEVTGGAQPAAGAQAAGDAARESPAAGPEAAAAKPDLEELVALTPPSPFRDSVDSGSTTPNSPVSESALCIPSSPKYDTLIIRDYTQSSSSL
row,SMILES,EC50
1,Cc1nc(N2CCN(C(=O)Cn3nc(-c4cc(C)c(F)cn4)cc3-c3ccccc3)CC2)no1 [Example 7.02.178],69 nM
2,CCc1cc(-c2ccc(F)c(C)c2)nn1CC(=O)N1CCC(c2cccc(OC)c2)CC1 [Example 7.02.147],572 nM
3,CCc1nc2c(o1)CN(C(=O)Cn1nc(-c3ccc(F)c(C)c3)cc1-c1ccccc1)C2 [Example 7.02.255],7 nM
4,CCCc1cc(-c2ccc(F)c(C)c2)nn1CC(=O)N1CC=C(c2ncc(C)o2)CC1 [Example 7.02.206],6 nM
5,Cc1cc(-c2cc(-c3ccccc3)n(CC(=O)N3CCC(c4ncccn4)CC3)n2)ccc1F [Example 7.02.016],110 nM
6,"O=C(Cn1nc(-c2ccccc2)cc1-c1ccccc1)N1CCC(c2ncc(Cl)cn2)CC1 [Example 7.01.001, 2-(3,5-diphenyl-pyrazol-1-yl)-1-(4-(5-chloro-pyrimidin-2-yl)-1-piperidinyl)-ethanon]",1430 nM
7,Cc1cccc(-c2cc(-c3ccccc3)n(CC(=O)N3Cc4nc(C)sc4C3)n2)c1 [Example 7.02.200],24 nM
8,Cc1nnc(N2CCN(C(=O)Cn3nc(-c4ccc(F)c(C)n4)cc3-c3ccccc3)CC2)o1 [Example 7.02.179],236 nM
9,COc1cc(C2CCN(C(=O)Cn3nc(-c4cccc(C)c4)cc3-c3ccccc3)CC2)ncn1 [Example 7.02.201],171 nM
10,CCCc1cc(-c2ccc(F)c(C)c2)nn1CC(=O)N1Cc2nc(C)oc2C1 [Example 7.02.214],11 nM
11,O=C(Cn1nc(-c2ccccc2)cc1-c1ccccc1)N1CCc2ncnc(-c3ccccc3)c2CC1 [Example 7.01.026],503 nM
12,CC(C)NC(=O)Nc1nc2c(s1)CN(C(=O)Cn1nc(-c3ccccc3)cc1-c1ccccc1)CC2 [Example 7.01.028],1300 nM
13,Cc1cc(-c2cc(-c3ccccc3)n(CC(=O)N3CCC(c4ccccn4)CC3)n2)ccc1F [Example 7.02.013],92 nM
14,Cc1nnc(N2CCN(C(=O)Cn3nc(-c4cccc(C#N)c4)cc3-c3ccccc3)CC2)o1 [Example 7.02.192],82 nM
15,Cc1nnc(C2CCN(C(=O)Cn3nc(-c4ccc(C)c(C)c4)cc3-c3ccccc3)CC2)o1 [Example 7.02.085],42 nM
16,Cc1cc(-c2cc(-c3ccccc3)n(CC(=O)N3CCc4ccc(N)cc4CC3)n2)ccc1F [Example 7.01.095],53 nM
17,Cc1nnc(N2CCN(C(=O)Cn3nc(-c4ccc(F)c(C)c4)cc3C)CC2)o1 [Example 7.01.063],334 nM

row,SMILES,EC50
1,CCc1cc(-c2cccc(Cl)c2)nn1CC(=O)N1CCN(c2nnc(C)o2)CC1 [Example 7.02.112],404 nM
2,COc1ccc2c(c1)CN(C(=O)Cn1nc(-c3ccccc3)cc1-c1ccccc1)CC2 [Example 7.01.007],1540 nM
3,Cc1nc2c(s1)CN(C(=O)Cn1nc(-c3ccc(F)cc3)cc1-c1ccc(F)cc1)C2 [Example 7.02.011],37 nM
4,CCCc1cc(-c2ccc(F)c(C)c2)nn1CC(=O)N1CCC(c2ncc(C)o2)CC1 [Example 7.02.208],36 nM
5,O=C(Cn1nc(-c2ccccc2)cc1-c1ccccc1)N1CCC(c2noc3ccccc23)CC1 [Example 7.02.007],600 nM
6,CCc1nnc(C2CCN(C(=O)Cn3nc(-c4ccc(F)c(C)c4)cc3CC)CC2)o1 [Example 7.02.219],209 nM
7,CCc1cc(-c2ccc(F)c(C)c2)nn1CC(=O)N1CCC(c2nnc(C)o2)CC1 [Example 7.02.157],430 nM
8,Cc1cc(-c2cc(-c3ccccc3)n(CC(=O)N3CCc4ncccc4C3)n2)ccc1F [Example 7.01.078],78 nM
9,N#Cc1ccc2c(c1)CCN(C(=O)Cn1nc(-c3ccccc3)cc1-c1ccccc1)C2 [Example 7.01.046],1000 nM
10,Cc1nnc(C2=CCN(C(=O)Cn3nc(-c4ccc(F)c(C)c4)cc3-c3ccccc3)CC2)o1 [Example 7.02.115],8 nM
11,Cc1nc2c(s1)CN(C(=O)Cn1nc(-c3ccccc3)cc1-c1ccccc1)C2 [Example 7.01.038],359 nM
12,COc1ccc2c(c1)CCN(C(=O)Cn1nc(-c3ccccc3)cc1-c1ccccc1)C2 [Example 7.01.018],538 nM
13,Cc1csc(N2CCN(C(=O)Cn3nc(-c4ccccc4)cc3-c3ccccc3)CC2)n1 [Example 7.01.003],1780 nM
14,CCc1cc(-c2cccc(C)c2)nn1CC(=O)N1CC=C(c2ncc(OC)cn2)CC1 [Example 7.02.082],291 nM
15,COc1cc(C2=CCN(C(=O)Cn3nc(-c4cccc(C)c4)cc3-c3ccccc3)CC2)ncn1 [Example 7.02.202],19 nM
16,CCc1cc(-c2ccc(F)c(C)c2)nn1CC(=O)N1CCc2cc(-c3ccccc3)nnc2CC1 [Example 7.01.066],153 nM

# More lines, now with the values ahead:
row,EC50,SMILES
1,10 nM,Cc1nc2c(o1)CCN(C(=O)Cn1nc(-c3ccc(F)c(C)c3)cc1-c1ccccc1)CC2 [Example 7.02.106]
2,32 nM,Cc1nc2c(s1)CCN(C(=O)Cn1nc(-c3ccc(F)c(C)c3)cc1C)CC2 [Example 7.01.059]
3,318 nM,CCc1cc(-c2ccc(C)c(C)c2)nn1CC(=O)N1Cc2nc(C)sc2C1 [Example 7.02.075]
4,166 nM,Nc1nc2c(s1)CCN(C(=O)Cn1nc(-c3ccccc3)cc1-c1ccccc1)CC2 [Example 7.01.023]
5,38 nM,Cc1nc2c(s1)CCN(C(=O)Cn1nc(-c3ccc(C)c(C)n3)cc1-c1ccccc1)CC2 [Example 7.02.122]
6,87 nM,CCc1cc(-c2ccc(F)c(C)c2)nn1CC(=O)N1CCc2oc(C)nc2C1 [Example 7.01.075]
7,182 nM,CCc1cc(-c2cccc(C)c2)nn1CC(=O)N1CCc2nc(N)sc2CC1 [Example 7.02.079]
8,41 nM,Cc1nc2c(s1)CN(C(=O)Cn1nc(-c3ccc(C)c(C)c3)cc1-c1ccccc1)C2 [Example 7.02.090]
9,221 nM,COc1ccc(-c2cc(C(C)C)n(CC(=O)N3CCc4nc(C)sc4CC3)n2)cc1C [Example 7.02.047]
10,1220 nM,COc1ccc(-c2cc(C(C)C)n(CC(=O)N3CCN(c4cccc(OC)c4)C(=O)C3)n2)cc1 [Example 7.02.041]
11,49 nM,Cc1ccc(-c2cc(-c3ccccc3)n(CC(=O)N3CCc4nc(N)sc4CC3)n2)cc1C [Example 7.02.094]
12,1240 nM,CCc1cc(-c2ccc(F)cc2)nn1CC(=O)N1Cc2nc(C)sc2C1 [Example 7.02.031]
13,200 nM,Cc1cnc(-c2cc(-c3ccccc3)n(CC(=O)N3CCc4nc(N)sc4CC3)n2)cc1C [Example 7.02.127]
14,69 nM,Cc1nc2c(s1)CCN(C(=O)Cn1nc(-c3ccc(OC(F)F)cn3)cc1-c1ccccc1)CC2 [Example 7.02.236]
15,6 nM,Cc1cccc(-c2cc(-c3ccccc3)n(CC(=O)N3CCc4nc(C)sc4CC3)n2)c1 [Example 7.02.198]
16,210 nM,COc1ccc(-c2cc(C(C)C)n(CC(=O)N3CCc4nc(N)sc4CC3)n2)cc1 [Example 7.02.038]
17,71 nM,Cc1ccc(-c2cc(-c3ccccc3)n(CC(=O)N3CCc4nc(N)sc4CC3)n2)nc1C [Example 7.02.123]
18,101 nM,Cc1cc(-c2cc(C)n(CC(=O)N3CCc4nc(N)sc4CC3)n2)ccc1F [Example 7.01.060]
19,157 nM,CNc1nc2c(s1)CCN(C(=O)Cn1nc(-c3ccc(F)c(C)c3)cc1C1CCCCC1)CC2 [Example 7.02.049]
20,163 nM,Cc1nc2c(o1)CN(C(=O)Cn1nc(-c3ccc(F)c(C)c3)cc1C)CC2 [Example 7.01.061]
21,15 nM,Cc1nc2c(s1)CCN(C(=O)Cn1nc(-c3cccc(Cl)c3)cc1-c1ccccc1)CC2 [Example 7.02.145]
